Numbers after ± are expanded uncertainties.

The data set is described as follows: activity coefficient (dimensionless); of the first substance listed, at infinite dilution; xn = mol fraction of the nth substance listed. Particulars: 101.33 kPa, Liquid, Chromatography, x1 = 0.

As for `C=CCCCC` [hex-1-ene] + CCCCCCCCn1cc[n+](C)c1C.O=S(=O)([N-]S(=O)(=O)C(F)(F)F)C(F)(F)F, the activity coefficient worked out at 4.99 ± 0.52 (313.15 K); 4.26 ± 0.45 (323.15 K); 3.65 ± 0.38 (333.15 K); 3.18 ± 0.33 (343.15 K); 2.81 ± 0.3 (353.15 K).

With `CC#N` [acetonitrile] + CCCCCCCCn1cc[n+](C)c1C.O=S(=O)([N-]S(=O)(=O)C(F)(F)F)C(F)(F)F, the activity coefficient is, setting by setting: (313.15 K) 0.51 ± 0.06; (323.15 K) 0.45 ± 0.05; (333.15 K) 0.4 ± 0.05; (343.15 K) 0.37 ± 0.04; (353.15 K) 0.34 ± 0.04.

Consider `Cc1cccc(C)c1` [1,3-dimethylbenzene] + CCCCCCCCn1cc[n+](C)c1C.O=S(=O)([N-]S(=O)(=O)C(F)(F)F)C(F)(F)F, for which the activity coefficient was 1.18 ± 0.12 (313.15 K); 1.14 ± 0.12 (323.15 K); 1.1 ± 0.11 (333.15 K); 1.04 ± 0.11 (343.15 K); 1.01 ± 0.1 (353.15 K).

`CCOC(C)=O` [ethyl acetate] + CCCCCCCCn1cc[n+](C)c1C.O=S(=O)([N-]S(=O)(=O)C(F)(F)F)C(F)(F)F: the activity coefficient turned out to be 0.74 ± 0.08 (313.15 K); 0.67 ± 0.07 (323.15 K); 0.61 ± 0.07 (333.15 K); 0.57 ± 0.06 (343.15 K); 0.52 ± 0.06 (353.15 K).

As to `C1CCOC1` [tetrahydrofuran] + CCCCCCCCn1cc[n+](C)c1C.O=S(=O)([N-]S(=O)(=O)C(F)(F)F)C(F)(F)F, the activity coefficient reads like this: (313.15 K) 0.54 ± 0.06; (323.15 K) 0.48 ± 0.05; (333.15 K) 0.44 ± 0.05; (343.15 K) 0.4 ± 0.05; (353.15 K) 0.37 ± 0.04.

Turning to `CCCCCCCCC` [nonane] + CCCCCCCCn1cc[n+](C)c1C.O=S(=O)([N-]S(=O)(=O)C(F)(F)F)C(F)(F)F, the activity coefficient (313.15 K) was 14.4 ± 1.5; the activity coefficient (323.15 K) is 12.1 ± 1.3; the activity coefficient (333.15 K) was 10.4 ± 1.1; the activity coefficient (343.15 K) was found to be 9.04 ± 0.95; the activity coefficient (353.15 K) came to 8.04 ± 0.85.

As for `ClC(Cl)(Cl)Cl` [tetrachloromethane] + CCCCCCCCn1cc[n+](C)c1C.O=S(=O)([N-]S(=O)(=O)C(F)(F)F)C(F)(F)F, the activity coefficient reads like this: (313.15 K) 1.77 ± 0.18; (323.15 K) 1.67 ± 0.17; (333.15 K) 1.57 ± 0.16; (343.15 K) 1.46 ± 0.15; (353.15 K) 1.39 ± 0.14.

Take `CCCCCCCC` [octane] + CCCCCCCCn1cc[n+](C)c1C.O=S(=O)([N-]S(=O)(=O)C(F)(F)F)C(F)(F)F: the activity coefficient is, setting by setting: (313.15 K) 11.1 ± 1.2; (323.15 K) 9.5 ± 1; (333.15 K) 8.12 ± 0.85; (343.15 K) 7.17 ± 0.75; (353.15 K) 6.32 ± 0.66.

For `Cc1ccc(C)cc1` [1,4-dimethylbenzene] + CCCCCCCCn1cc[n+](C)c1C.O=S(=O)([N-]S(=O)(=O)C(F)(F)F)C(F)(F)F, the activity coefficient (313.15 K) came to 1.17 ± 0.12; the activity coefficient (323.15 K) was determined as 1.11 ± 0.11; the activity coefficient (333.15 K) was 1.06 ± 0.11; the activity coefficient (343.15 K) was 1 ± 0.1; the activity coefficient (353.15 K) turned out to be 0.95 ± 0.1.

Turning to `CCc1ccccc1` [ethylbenzene] + CCCCCCCCn1cc[n+](C)c1C.O=S(=O)([N-]S(=O)(=O)C(F)(F)F)C(F)(F)F, the activity coefficient is, setting by setting: (313.15 K) 1.37 ± 0.14; (323.15 K) 1.29 ± 0.13; (333.15 K) 1.2 ± 0.12; (343.15 K) 1.14 ± 0.12; (353.15 K) 1.08 ± 0.11.

As to `CCCCC` [pentane] + CCCCCCCCn1cc[n+](C)c1C.O=S(=O)([N-]S(=O)(=O)C(F)(F)F)C(F)(F)F, the activity coefficient reads like this: (313.15 K) 6.78 ± 0.71; (323.15 K) 5.63 ± 0.59; (333.15 K) 4.81 ± 0.51; (343.15 K) 4.24 ± 0.45; (353.15 K) 3.66 ± 0.38.

As to `C1COCCO1` [1,4-dioxane] + CCCCCCCCn1cc[n+](C)c1C.O=S(=O)([N-]S(=O)(=O)C(F)(F)F)C(F)(F)F, the activity coefficient by setting is: (313.15 K) 0.64 ± 0.07; (323.15 K) 0.56 ± 0.06; (333.15 K) 0.51 ± 0.06; (343.15 K) 0.47 ± 0.05; (353.15 K) 0.42 ± 0.05.

Regarding `CCCCCCC` [heptane] + CCCCCCCCn1cc[n+](C)c1C.O=S(=O)([N-]S(=O)(=O)C(F)(F)F)C(F)(F)F, the activity coefficient (313.15 K) came out at 8.82 ± 0.93; the activity coefficient (323.15 K) amounted to 7.77 ± 0.82; the activity coefficient (333.15 K) turned out to be 6.89 ± 0.72; the activity coefficient (343.15 K) worked out at 6.29 ± 0.66; the activity coefficient (353.15 K) came out at 5.69 ± 0.6.

As to `c1ccccc1` [benzene] + CCCCCCCCn1cc[n+](C)c1C.O=S(=O)([N-]S(=O)(=O)C(F)(F)F)C(F)(F)F, the activity coefficient by setting is: (313.15 K) 0.81 ± 0.08; (323.15 K) 0.74 ± 0.08; (333.15 K) 0.68 ± 0.07; (343.15 K) 0.63 ± 0.07; (353.15 K) 0.59 ± 0.06.

`Cc1ccccc1C` [1,2-dimethylbenzene] + CCCCCCCCn1cc[n+](C)c1C.O=S(=O)([N-]S(=O)(=O)C(F)(F)F)C(F)(F)F: the activity coefficient is, setting by setting: (313.15 K) 1.15 ± 0.12; (323.15 K) 1.08 ± 0.11; (333.15 K) 1.02 ± 0.1; (343.15 K) 0.96 ± 0.1; (353.15 K) 0.93 ± 0.09.

Consider `CO` [methanol] + CCCCCCCCn1cc[n+](C)c1C.O=S(=O)([N-]S(=O)(=O)C(F)(F)F)C(F)(F)F, for which the activity coefficient worked out at 1.37 ± 0.14 (313.15 K); 1.26 ± 0.13 (323.15 K); 1.14 ± 0.12 (333.15 K); 1.05 ± 0.11 (343.15 K); 0.96 ± 0.1 (353.15 K).

In the case of `CC(C)=O` [acetone] + CCCCCCCCn1cc[n+](C)c1C.O=S(=O)([N-]S(=O)(=O)C(F)(F)F)C(F)(F)F, the activity coefficient runs as follows: (313.15 K) 0.46 ± 0.05; (323.15 K) 0.41 ± 0.05; (333.15 K) 0.37 ± 0.04; (343.15 K) 0.34 ± 0.04; (353.15 K) 0.31 ± 0.04.

As to `CCCCCC` [hexane] + CCCCCCCCn1cc[n+](C)c1C.O=S(=O)([N-]S(=O)(=O)C(F)(F)F)C(F)(F)F, the activity coefficient reads like this: (313.15 K) 7.89 ± 0.83; (323.15 K) 6.52 ± 0.69; (333.15 K) 5.57 ± 0.59; (343.15 K) 4.87 ± 0.51; (353.15 K) 4.22 ± 0.44.

On to `ClC(Cl)Cl` [trichloromethane] + CCCCCCCCn1cc[n+](C)c1C.O=S(=O)([N-]S(=O)(=O)C(F)(F)F)C(F)(F)F, for which the activity coefficient (313.15 K) was found to be 0.77 ± 0.08; the activity coefficient (323.15 K) worked out at 0.7 ± 0.07; the activity coefficient (333.15 K) worked out at 0.65 ± 0.07; the activity coefficient (343.15 K) amounted to 0.6 ± 0.06; the activity coefficient (353.15 K) was determined as 0.54 ± 0.06.

`CCCCCCCCCC` [decane] + CCCCCCCCn1cc[n+](C)c1C.O=S(=O)([N-]S(=O)(=O)C(F)(F)F)C(F)(F)F: the activity coefficient by setting is: (313.15 K) 20.8 ± 2.2; (323.15 K) 16.4 ± 1.7; (333.15 K) 13.5 ± 1.4; (343.15 K) 11.2 ± 1.2; (353.15 K) 9.33 ± 0.98.

`CCC(C)O` (stereo not given) [butan-2-ol] + CCCCCCCCn1cc[n+](C)c1C.O=S(=O)([N-]S(=O)(=O)C(F)(F)F)C(F)(F)F: the activity coefficient is, setting by setting: (313.15 K) 2.03 ± 0.21; (323.15 K) 1.74 ± 0.18; (333.15 K) 1.5 ± 0.16; (343.15 K) 1.29 ± 0.13; (353.15 K) 1.11 ± 0.11.

For `CCCCO` [butan-1-ol] + CCCCCCCCn1cc[n+](C)c1C.O=S(=O)([N-]S(=O)(=O)C(F)(F)F)C(F)(F)F, the activity coefficient (313.15 K) is 2.31 ± 0.24; the activity coefficient (323.15 K) worked out at 1.96 ± 0.21; the activity coefficient (333.15 K) was 1.7 ± 0.18; the activity coefficient (343.15 K) turned out to be 1.46 ± 0.15; the activity coefficient (353.15 K) was found to be 1.27 ± 0.13.

In the case of `CC(C)CCO` [3-methylbutan-1-ol] + CCCCCCCCn1cc[n+](C)c1C.O=S(=O)([N-]S(=O)(=O)C(F)(F)F)C(F)(F)F, the activity coefficient runs as follows: (313.15 K) 2.46 ± 0.26; (323.15 K) 2.11 ± 0.22; (333.15 K) 1.79 ± 0.19; (343.15 K) 1.55 ± 0.16; (353.15 K) 1.32 ± 0.14.

As to `CCO` [ethanol] + CCCCCCCCn1cc[n+](C)c1C.O=S(=O)([N-]S(=O)(=O)C(F)(F)F)C(F)(F)F, the activity coefficient came to 1.7 ± 0.18 (313.15 K); 1.49 ± 0.15 (323.15 K); 1.31 ± 0.13 (333.15 K); 1.15 ± 0.12 (343.15 K); 1.01 ± 0.1 (353.15 K).

`CC1CCCCC1` [methylcyclohexane] + CCCCCCCCn1cc[n+](C)c1C.O=S(=O)([N-]S(=O)(=O)C(F)(F)F)C(F)(F)F: the activity coefficient is 5.67 ± 0.6 (313.15 K); 4.88 ± 0.51 (323.15 K); 4.25 ± 0.45 (333.15 K); 3.79 ± 0.4 (343.15 K); 3.32 ± 0.35 (353.15 K).

In the case of `CC(C)CO` [2-methyl-1-propanol] + CCCCCCCCn1cc[n+](C)c1C.O=S(=O)([N-]S(=O)(=O)C(F)(F)F)C(F)(F)F, the activity coefficient runs as follows: (313.15 K) 2.21 ± 0.23; (323.15 K) 1.88 ± 0.2; (333.15 K) 1.6 ± 0.17; (343.15 K) 1.39 ± 0.14; (353.15 K) 1.21 ± 0.12.

Regarding `ClCCl` [dichloromethane] + CCCCCCCCn1cc[n+](C)c1C.O=S(=O)([N-]S(=O)(=O)C(F)(F)F)C(F)(F)F, the activity coefficient reads like this: (313.15 K) 0.82 ± 0.08; (323.15 K) 0.75 ± 0.08; (333.15 K) 0.68 ± 0.07; (343.15 K) 0.64 ± 0.07; (353.15 K) 0.58 ± 0.06.

Consider `C1=CCCCC1` [cyclohexene] + CCCCCCCCn1cc[n+](C)c1C.O=S(=O)([N-]S(=O)(=O)C(F)(F)F)C(F)(F)F, for which the activity coefficient came out at 3.04 ± 0.32 (313.15 K); 2.77 ± 0.29 (323.15 K); 2.5 ± 0.26 (333.15 K); 2.28 ± 0.24 (343.15 K); 2.1 ± 0.22 (353.15 K).

These data come from the NIST ThermoML archive (doi:10.1016/j.jct.2017.12.012).
